# Marks after values point to notes of the source that are not given here.
# What was measured:
# P. falciparum 3D7 = P. falciparum 3D7 proliferation assay; type: cell-based, Plasmodium falciparum; settings: Plasmodium falciparum, 3D7; imidazolopiperazine hits; mean of two experiments; read-out: P. falciparum 3D7 EC50
# Source text: (§1) We screened both our in-house compound collection (~2.3M compounds) and natural products library (12,000 compounds) using a cell based Plasmodium falciparum proliferation assay. This screen provided data on a large number of chemically diverse anti-malarial compounds. These nearly 5700 hits have been deposited into the public EBI database by GNF/Novartis. A number of these hits originated from kinase-directed libraries and many of which are pan-kinase inhibitors. De-convoluting and eliminating inherent kinase activity with many of these scaffolds while maintaining cellular potency was the first step in the hit-to-lead phase for these particular chemotypes. What follows is a summary of the chemical optimization of some kinase-like and non-kinase scaffolds which came out of the whole-cell screening effort.
# P. falciparum W2 = P. falciparum W2 proliferation assay; type: cell-based; settings: Plasmodium falciparum, imidazolopiperazine hits, mean of two experiments
# Source text: as §1
# aqueous solubility = type: physicochemical; settings: aqueous medium, pH 6.8, aqueous buffer
# hERG = hERG (Homo sapiens, UniProt Q12809); assay: hERG binding assay
# Chain of hERG (Q12809 whole entry): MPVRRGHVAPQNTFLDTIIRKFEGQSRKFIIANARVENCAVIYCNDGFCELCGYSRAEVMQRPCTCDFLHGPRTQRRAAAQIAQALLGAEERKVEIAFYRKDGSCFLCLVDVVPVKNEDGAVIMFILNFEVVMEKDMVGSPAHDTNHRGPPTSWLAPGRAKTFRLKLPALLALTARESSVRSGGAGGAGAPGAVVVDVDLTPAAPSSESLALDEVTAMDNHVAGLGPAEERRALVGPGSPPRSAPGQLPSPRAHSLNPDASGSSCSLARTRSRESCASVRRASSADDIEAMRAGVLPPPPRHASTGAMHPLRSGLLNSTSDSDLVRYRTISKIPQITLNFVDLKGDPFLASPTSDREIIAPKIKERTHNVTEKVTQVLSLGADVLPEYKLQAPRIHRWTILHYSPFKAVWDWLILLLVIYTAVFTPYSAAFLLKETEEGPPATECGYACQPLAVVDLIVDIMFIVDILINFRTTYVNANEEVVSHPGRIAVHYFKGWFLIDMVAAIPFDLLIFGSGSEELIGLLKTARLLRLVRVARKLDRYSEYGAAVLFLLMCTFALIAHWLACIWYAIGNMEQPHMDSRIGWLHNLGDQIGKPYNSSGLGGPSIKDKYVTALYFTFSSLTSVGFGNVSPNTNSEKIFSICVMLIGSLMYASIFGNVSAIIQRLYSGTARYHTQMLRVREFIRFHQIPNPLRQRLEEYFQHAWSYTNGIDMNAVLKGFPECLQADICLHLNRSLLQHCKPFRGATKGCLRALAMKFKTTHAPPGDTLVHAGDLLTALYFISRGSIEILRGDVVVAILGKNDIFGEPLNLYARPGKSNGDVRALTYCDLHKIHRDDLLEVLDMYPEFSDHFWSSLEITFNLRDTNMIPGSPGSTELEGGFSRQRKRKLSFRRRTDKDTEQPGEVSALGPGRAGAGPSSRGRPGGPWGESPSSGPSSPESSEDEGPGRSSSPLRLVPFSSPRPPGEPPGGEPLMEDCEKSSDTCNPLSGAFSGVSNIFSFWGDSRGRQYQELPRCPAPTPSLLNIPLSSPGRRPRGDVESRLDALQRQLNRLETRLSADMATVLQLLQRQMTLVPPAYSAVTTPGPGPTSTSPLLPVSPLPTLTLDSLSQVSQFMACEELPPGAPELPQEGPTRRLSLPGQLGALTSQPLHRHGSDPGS
# Huh7 = settings: human
# [1] = system: panel of cytochrome P450 isoforms; assay: in vitro
# Plasmodium berghei = assay: P. berghei murine model; type: in vivo
# [2] = 2-week rat toxicology study; type: in vivo
# [3] = target: WT-PfDHFR (wild type PfDHFR); parameters: method as in PMID 20350951; settings: cited from earlier work
# [4] = target: QM-PfDHFR (quadruple mutant PfDHFR); parameters: method as in PMID 20350951; settings: cited from earlier work
# hDHFR (human DHFR) = target: hDHFR (human DHFR); parameters: method as in PMID 20350951; settings: cited from earlier work
# wild type P. falciparum = system: wild type P. falciparum; parameters: method as in PMID 20350951; settings: read-out: EC50 on wild type P. falciparum in vitro; cited from earlier work
compound,measurement,setting,value
NCC(=O)N1CCn2c(nc(-c3ccccc3)c2Nc2ccc3c(c2)OCO3)C1 [Compound 18a],EC50,P. falciparum 3D7,63 nM
same,EC50,P. falciparum W2,97 nM
same,solubility,aqueous solubility,> 175 µM
same,IC50,hERG,19000 nM
same,Cytotoxicity (µM) Huh7,Huh7,> 10 µM
same,IC50,[1],> 10000 nM
"COc1ccc(OC)c(CNc2ccc3nc(N)nc(N)c3c2Cl)c1 [QN254, 5-Chloro-N'6'-(2 5 di-methoxy-benzyl)-quinazoline-2 4 6-triamine]",Cure Rate (%),Plasmodium berghei; 3 x 30 (mg/kg),80%
same,Toxicity Rate (%),Plasmodium berghei; 3 x 30 (mg/kg),0%
same,Average Survival,"Plasmodium berghei; 3 x 30 (mg/kg), control survival 5.6 to 6.2 days",28.4 days
same,Cure Rate (%),Plasmodium berghei; 3 x 60 (mg/kg),60%
same,Parasitemia Reduction (%),Plasmodium berghei; 3 x 60 (mg/kg),> 99.99%
same,Toxicity Rate (%),"Plasmodium berghei; 3 x 60 (mg/kg), mice died around day 10 and were parasite free",40^b %
same,Cure Rate (%),Plasmodium berghei; 3 x 100 (mg/kg),20%
same,Parasitemia Reduction (%),Plasmodium berghei; 3 x 100 (mg/kg),> 99.99%
same,Toxicity Rate (%),"Plasmodium berghei; 3 x 100 (mg/kg), mice died around day 10 and were parasite free",80^b %
same,Parasitemia Reduction (%),"Plasmodium berghei; dosing regimen 3 x 30 (mg/kg), oral, compared to untreated controls",> 99.99%
same,histopathological analysis,[2]; 2-week toxicology study,significant gastrointestinal and bone marrow toxicity
same,tolerability,"[2]; 2 weeks, repeated oral administration of greater than 50 mg/kg",not tolerated
same,Ki,[3],0.39 ± 0.05 nM
same,Ki,[4],0.58 ± 0.06 nM
same,Ki,hDHFR (human DHFR),10.2 ± 0.6 nM
same,EC50,wild type P. falciparum,9 nM

# From PMC3355380, “Back to the Future: Lessons Learned in Modern Target-based and Whole-Cell Lead Optimization of Antimalarials” (Current Topics in Medicinal Chemistry, 2012)
